The source of these data is patent US9790211B2, “5-amino-quinoline-8-carboxamide derivatives as 5-HT4 receptor agonists” (SUVEN LIFE SCIENCES LIMITED, priority 2013, dated 2017).

Read-outs that look alike come from different tables or passages of the source.

Experiment [1] concerns the target T1, recombinant human 5-HT4 receptor (Homo sapiens, UniProt Q13639).
T1 construct: expressed in transfected cells
The experiment in a line: Determination of EC50 values for 5-HT4 receptor (CHO cells, pCRE-Luc reporter). The format is cell-based. Conditions: for Emax: CHO; for EC50: 4 hours incubation. The method, then:
Determination of EC50 Values for 5-HT4 Receptor
A stable CHO cell line expressing recombinant human 5-HT4 receptor and pCRE-Luc reporter system was used for cell-based assay. The assay offers a non-radioactive based approach to determine binding of a compound to GPCRs. In this specific assay, the level of intracellular cyclic AMP, which is modulated by activation, or inhibition of the receptor is measured. The recombinant cells harbor luciferase reporter gene under the control of cAMP response element.
The above cells were grown in 96 well clear bottom white plates in Hams F12 medium containing 10% fetal bovine serum (FBS). Prior to the addition of compounds or standard agonist, cells were serum starved overnight. Increasing concentrations of test compounds were added in OptiMEM medium to the cells. The incubation was continued at 37° C. in CO2 incubator for 4 hours. Medium was removed and cells were washed with phosphate buffered saline. The cells were lysed and luciferase activity was measured in a Luminometer. Luminescence units were plotted against the compound concentrations using Graphpad software.

For experiment [2], the system named is Male Wistar rats. Kind of experiment: Object recognition task model. The format is in vivo. The settings on record: dose mg/kg: Ex 1 0.1, Ex 2 0.03, Ex 4 0.03, Ex 13 1, Ex 23 0.01, Ex 37 10, Ex 43 0.3. The method, then:
The cognition enhancing properties of compounds of this invention were estimated by using this model.
Male Wistar rats (230-280 grams) were used as experimental animals. Four animals were housed in each cage. Animals were kept on 20% food deprivation before one day and given water ad libitum throughout the experiment and maintained on a 12 hours light/dark cycle. Also the rats were habituated to individual arenas for 1 hour in the absence of any objects.
One group of 12 rats received vehicle (1 mL/Kg) orally and another set of animals received compound of the formula (I) either orally or i.p., before one hour of the familiar (T1) and choice trial (T2).
The experiment was carried out in a 50×50×50 cm open field made up of acrylic. In the familiarization phase, (T1), the rats were placed individually in the open field for 3 minutes, in which two identical objects (plastic bottles, 12.5 cm height×5.5 cm diameter) covered in yellow masking tape alone (a1 and a2) were positioned in two adjacent corners, 10 cms from the walls. After 24 hours of the (T1) trial for long-term memory test, the same rats were placed in the same arena as they were placed in T1 trial. Choice phase (T2) rats were allowed to explore the open field for 3 minutes in presence of one familiar object (a3) and one novel object (b) (Amber color glass bottle, 12 cm high and 5 cm in diameter). Familiar objects presented similar textures, colors and sizes. During the T1 and T2 trial, explorations of each object (defined as sniffing, licking, chewing or having moving vibrissae whilst directing the nose towards the object at a distance of less than 1 cm) were recorded separately by stopwatch. Sitting on an object was not regarded as exploratory activity, however, it was rarely observed.
T1 is the total time spent exploring the familiar objects (a1+a2).
T2 is the total time spent exploring the familiar object and novel object (a3+b).
The object recognition test was performed as described by Behaviour Brain Research, (1988), 31, 47-59.

Experiment [3] has as its system Aβ1-40. Kind of experiment: Effect on CSF Aβ1-40 level (ELISA). The experiment is classed as in vivo, Male Sprague Dawley Rat. Conditions: 50.0 mg/kg p.o., positive control. As for the experimental part:
The control group of male rats received a vehicle (reagent grade water) per orally by gavage at a dose volume of 10 mL/kg. The treated groups (6 rat per group) received a single dose of test compound (different doses) or DAPT (50.0 mg/kg). Two hour post dose of vehicle or test compounds, rats were anesthetized with isoflurane and CSF was collected from Cisterna magna using 0.5 mL syringes by utilizing stereotaxic frame. The CSF samples were frozen in liquid nitrogen and stored at −80° C. until ELISA was performed.
• 1. CSF samples were thawed to RT and diluted with Tris Buffer Saline containing protease inhibitors at 1:10 ratio 115:150 μL (15 μL CSI+135 μL TBS. • 2. To this diluted CSF samples 0.15 mL of EIA buffer (1:1 ratio) was added. These diluted samples were subjected for Aβ1-40 level measurement by ELISA. Measurement of Aβ1-40 by ELISA Kit:
To investigate the role of an acute treatment of test compound on Aβ1-40 levels, expression of this protein in CSF was measured in treated and untreated rat by ELISA assay. The entire procedure was followed as per ELISA kit manual (Mouse/Rat Amyloid-Aβ1-40 ELISA, Cat No: 27721, IBL International, Hamburg, Germany).
Statistical analysis was performed using the Graph Pad Prism (Version 4). Data are Mean±SD of Aβ1-40 levels expressed as percentage of control values (rat which received regent grade water). Values were compared between the different groups by using unpaired t test. The significance level was set at *p<0.05; **p<0.01; ***p<0.001.

For experiment [4], the system named is Aβ1-42. The experiment in a line: Effect on CSF Aβ1-42 level (ELISA). Conditions: 50.0 mg/kg p.o., positive control. The format is in vivo, Male Sprague Dawley Rat. The method, then: The control group of male rats received a vehicle (reagent grade water) per orally by gavage at a dose volume of 10 mL/kg. The treated groups (6 rat per group) received a single dose of test compound (different doses) or DAPT (50.0 mg/kg). Two hour post dose of vehicle or test compounds, rats were anesthetized with isoflurane and CSF was collected by puncturing Cisterna magna using 0.5 mL syringes by utilizing stereotaxic frame. CSF samples were frozen in liquid nitrogen and stored at −80° C. until ELISA was performed.
• 1. CSF samples were thawed to RT and diluted with Tris Buffer Saline containing protease inhibitors at 1:10 ratio [15:150 μL (15 μL CSF+ 135 μL TBS], • 2. To this diluted CSF samples 0.15 mL of EIA buffer (1:1 ratio) was added. These diluted samples were subjected for Aβ1-42 level measurement by ELISA. Measurement of Aβ1-42 by ELISA Kit:
To investigate the role of an acute treatment of test compound on Aβ1-42 levels, expression of this protein was measured in CSF of treated and untreated rat by ELISA assay. The entire procedure was followed as described in ELISA kit manual (Mouse/Rat […], Cat No: 27720, IBL International, Hamburg, Germany).
Statistical analyses were performed using the Graph Pad Prism (Version 4). Data are Mean±SD of Aβ1-42 levels expressed as percentage of control values (rat which received regent grade water). Values were compared between the different groups by unpaired t test. The significance level was set at *p<0.05; **p<0.01; ***p<0.001.

[5] abbreviates: CHO cells, human 5-HT4 receptor, luciferase reporter.
Where [6] appears, read: CHO cells, human 5-HT4 receptor, luciferase reporter, read-out: Emax.

T1 sequence (Q13639 whole entry): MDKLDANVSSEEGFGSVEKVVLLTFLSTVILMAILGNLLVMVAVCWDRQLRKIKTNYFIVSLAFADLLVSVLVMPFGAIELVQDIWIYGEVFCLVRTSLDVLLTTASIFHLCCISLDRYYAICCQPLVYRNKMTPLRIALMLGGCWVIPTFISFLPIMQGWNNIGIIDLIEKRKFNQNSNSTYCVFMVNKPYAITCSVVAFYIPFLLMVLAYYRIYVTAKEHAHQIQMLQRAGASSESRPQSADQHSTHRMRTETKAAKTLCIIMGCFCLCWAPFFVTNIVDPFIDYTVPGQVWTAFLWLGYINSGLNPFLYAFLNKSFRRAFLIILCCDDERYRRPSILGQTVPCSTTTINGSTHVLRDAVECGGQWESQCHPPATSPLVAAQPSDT

For the compound `Nc1c(Cl)cc(C(=O)NCC2CCN(CC3CCOC3)CC2)c2ncccc12.O=C(O)C(O)C(O)C(=O)O` (racemic) [Example 4, (R,S) 5-Amino-6-chloro-N-{[1-(tetrahydro-3-furanylmethyl)-4-piperidinyl]methyl} quinoline-8-carboxamide L(+)-tartarate], in experiment [1], the Emax was 56%. In addition, in experiment [1] (setting [5]), the 50% effective concentration (EC50) was found to be 0.05 nM. In addition, in experiment [2] (choice trial T2, p.o.), the “Exploration time mean ± S.E.M, Familiar object” value was found to be 6.96 ± 1.02 s and the “Exploration time mean ± S.E.M, Novel object” value stood at 12.37 ± 1.22 s. In addition, the Inference entry in experiment [2] (p.o.) is listed as “Active”.

For `C[C@H](NC(=O)Cc1cc(F)cc(F)c1)C(=O)N[C@H](C(=O)OC(C)(C)C)c1ccccc1` [DAPT, reference compound], in experiment [3], the “level of Aβ1-40 in rat CSF (in words)” value is reported as “significantly decreased”. For the same compound, the “levels of Aβ1-42 in rat CSF (in words)” value in experiment [4] is “significantly decreased”.

For the compound `CC(C)(O)CN1CCC(CNC(=O)c2cc(Br)c(N)c3cccnc23)CC1` [Example 44, 5-Amino-6-bromo-N-{[1-(2-hydroxy-2-methylpropyl)-4-piperidinyl]methyl} quinoline-8-carboxamide L(+)-tartarate], the Emax in experiment [1] worked out at 52%. In experiment [1] (setting [5]), the EC50 came out at 0.3 nM.

`CC(C)(O)CN1CCC(F)(CNC(=O)c2cc(Br)c(N)c3cccnc23)CC1` [Example 45, 5-Amino-6-bromo-N-{[4-fluoro-1-(2-hydroxy-2-methylpropyl)-4-piperidinyl]methyl} quinoline-8-carboxamide L(+)-tartarate]: in experiment [1], the maximal response (Emax) was 89%. Besides, in experiment [1] (setting [5]), the EC50 was determined as 11.8 nM.

For `CC(C)(F)CN1CCC(CNC(=O)c2cc(Cl)c(N)c3cccnc23)CC1` [Example 46, 5-Amino-6-chloro-N-{[1-(2-fluoro-2-methylpropyl)-4-piperidinyl]methyl}quinoline-8-carboxamide], the EC50 in experiment [1] (setting [5]) is 0.1 nM. Further, the maximal effect (Emax) in experiment [1] (setting [6]) is 58%.

For `CC(C)(F)CN1CCC(F)(CNC(=O)c2cc(Cl)c(N)c3cccnc23)CC1` [Example 48, 5-Amino-6-chloro-N-{[4-fluoro-1-(2-fluoro-2-methylpropyl)-4-piperidinyl]methyl} quinoline-8-carboxamide], the half-maximal effective concentration (EC50) in experiment [1] (setting [5]) stood at 8.9 nM. The Emax in experiment [1] (setting [6]) is 84%.

With `Nc1c(Cl)cc(C(=O)NCC2C3CN(CCO)CC23)c2ncccc12` (stereo not drawn) [Example 50, 5-Amino-6-chloro-N-{[3-(2-hydroxyethyl)-3-azabicyclo[3.1.0]hex-6-yl]methyl} quinoline-8-carboxamide], the EC50 in experiment [1] (setting [5]) is 1.7 nM. In addition, in experiment [1] (setting [6]), the Emax stood at 72%.

`Nc1c(Cl)cc(C(=O)NCC2C3CN(CCCO)CC23)c2ncccc12` (stereo not drawn) [Example 51, 5-Amino-6-chloro-N-{[3-(3-hydroxypropyl)-3-azabicyclo[3.1.0]hex-6-yl]methyl} quinoline-8-carboxamide]: the EC50 in experiment [1] (setting [5]) came to 1.4 nM. For the same compound, the Emax in experiment [1] (setting [6]) was found to be 85%.

For the compound `Nc1c(Cl)cc(C(=O)NCC2CCN(CCF)CC2)c2ncccc12` [Example 52, 5-Amino-6-chloro-N-{[1-(2-fluoroethyl)-4-piperidinyl]methyl}quinoline-8-carboxamide], in experiment [1] (setting [5]), the EC50 is 0.41 nM. Besides, the maximal effect (Emax) in experiment [1] (setting [6]) amounted to 63%.

Regarding `Nc1c(Cl)cc(C(=O)NCC2C3CN(CCF)CC23)c2ncccc12` (stereo not drawn) [Example 53], the EC50 in experiment [1] (setting [5]) came out at 4.5 nM. In addition, the maximal effect (Emax) in experiment [1] (setting [6]) turned out to be 65%.

As to `COCCCN1CC2C(CNC(=O)c3cc(Cl)c(N)c4cccnc34)C2C1` (stereo not drawn) [Example 54, 5-Amino-6-chloro-N-{[3-(3-methoxypropyl)-3-azabicyclo[3.1.0]hex-6-yl]methyl}quinoline-8-carboxamide L(+)-tartarate], in experiment [1], the maximal effect (Emax) came to 70%. In experiment [1] (setting [5]), the EC50 was determined as 0.7 nM.

For the compound `COCC(C)(C)CN1CCC(CNC(=O)c2cc(Cl)c(N)c3cccnc23)CC1` [Example 55, 5-Amino-6-chloro-N-{[1-(3-methoxy-2,2-dimethylpropyl)-4-piperidinyl]methyl}quinoline-8-carboxamide L(+)-tartarate], the Emax in experiment [1] turned out to be 72%. Besides, the EC50 in experiment [1] (setting [5]) was found to be 0.09 nM.
